Paper PMC7883726 (Acta Pharmaceutica Sinica. B, 2021)
“Also recorded” adds a separate entry of the source. Where two headings read alike, the source gives them in different places.

How the values were obtained:
SARS-CoV-2 = settings: read-out: EC50 SARS-CoV-2 in vitro; cited from earlier work
HCoV-OC43 = HCoV-OC43 cytopathic effects; format: cell-based
HEK293T cells = settings: below 50 μmol/L, CCK-8
SARS-CoV-2 RdRp [1] = target: T1, SARS-CoV-2 RdRp (Severe acute respiratory syndrome coronavirus 2, UniProt P0DTD1); assay: biochemical; settings: read-out: inhibition of polymerase activity
SARS-CoV-2 RdRp [2] = target: T1, SARS-CoV-2 RdRp; assay: cell-based
[3] = target: SARS-CoV-2 RdRp with nsp10–nsp14 exoribonuclease complex (Severe acute respiratory syndrome coronavirus 2, UniProt P0DTD1); format: cell-based; settings: with versus without nsp10–nsp14
SARS-CoV-2 Mpro = SARS-CoV-2 Mpro (Severe acute respiratory syndrome coronavirus 2, UniProt P0DTD1); assay: SARS-CoV-2 Mpro enzyme activity inhibition assay; format: biochemical; settings: 10 μmol/L
[4] = cited from earlier work
[5] = orally administered, cited from earlier work
[6] = rats, orally administered; cited from earlier work

Row | Compound | EC50 (SARS-CoV-2) | concentration protecting cells from CPE induced by HCoV-OC43 (HCoV-OC43) | cytotoxicity on HEK293T cells (HEK293T cells) | inhibition at 2.5 µM (SARS-CoV-2 RdRp [1]) | inhibition at 10 µM (SARS-CoV-2 RdRp [1]) | inhibition at 40 µM (SARS-CoV-2 RdRp [1]) | EC50 (SARS-CoV-2 RdRp [2]) | fold increase in EC50 on expression of nsp10–nsp14 [3] | inhibitory effect on SARS-CoV-2 Mpro (SARS-CoV-2 Mpro) | LD50 [4] | acute dose showing maximum tolerance [4] | toxicity in acute toxicity studies ([4]; oral) | half lifetime (t1/2) ([5]; mice and rats) | time to Cmax (Tmax) ([5]; mice and rats) | maximum plasma concentration (Cmax) ([5]; mice) | maximum plasma concentration (Cmax) [6]
1 | NC(=O)c1ncn([C@@H]2O[C@H](CO)[C@@H](O)[C@H]2O)n1 [ribavirin] | 110 µM | – | – | – | – | – | – | – | – | – | – | – | – | – | – | –
2 | CCC(CC)COC(=O)[C@H](C)N[P@](=O)(OC[C@H]1O[C@@](C#N)(c2ccc3c(N)ncnn23)[C@H](O)[C@@H]1O)Oc1ccccc1 [remdesivir, reference compound] | – | 0.39 µmol/L | Neither remdesivir nor RAI-S-37 showed cytotoxicity | – | – | – | – | – | – | – | – | – | – | – | – | –
3 | O=C(O[C@@H]1O[C@@H]2COC(=O)c3cc(O)c(O)c(O)c3-c3c(cc(O)c(O)c3O)C(=O)O[C@H]([C@H]1O)[C@@H]2O)c1cc(O)c(O)c(O)c1 [RAI-S-37, Corilagin] | – | 0.78 µmol/L | Neither remdesivir nor RAI-S-37 showed cytotoxicity | 24% | 73% | 83% | 3.33 µM | same EC50 values; also recorded: remain the same | did not show any inhibitory effect | 3500–5000 mg/kg b. wt. | up to 3500 mg/kg body weight (b.wt.) | did not show any toxicity | about 6 h | ~2 h | 57.0 µg/mL | 52.37 µg/mL
